Assays:
[1] = Binding affinity to HCV NS3/4a protease by isothermal titration calorimetry; design: species or system Hepacivirus hominis
[2] = Inhibition of HCV NS3/4a protease using biotin-DDIVPCSMSY[125I]TW as substrate by radiometric assay; design: species or system Hepacivirus hominis

| SMILES | Kd [1] | Ki [2] |
| --- | --- | --- |
| C=CC1C[C@@]1(NC(=O)[C@@H]1C[C@@H](Oc2cc(-c3ccccc3)nc3ccccc23)CN1C(=O)[C@H](C)NC(=O)OC(C)(C)C)C(=O)O (some centres undefined) | 2630 nM | – |
| C=CC1C[C@@]1(NC(=O)[C@@H]1C[C@@H](Oc2cc(-c3ccccc3)nc3ccccc23)CN1C(=O)CNC(=O)OC(C)(C)C)C(=O)O (some centres undefined) | 77000 nM | – |
| C=CC1C[C@@]1(NC(=O)[C@@H]1C[C@@H](Oc2cc(-c3ccccc3)nc3ccccc23)CN1C(=O)[C@@H](NC(=O)OC(C)(C)C)C(C)(C)C)C(=O)O (some centres undefined) | 100 nM | – |
| C=CC1C[C@@]1(NC(=O)[C@@H]1C[C@@H](Oc2cc(-c3ccccc3)nc3ccccc23)CN1C(=O)[C@H](CC)NC(=O)OC(C)(C)C)C(=O)O (some centres undefined) | 900 nM | – |
| C=CC1C[C@@]1(NC(=O)[C@@H]1C[C@@H](Oc2cc(-c3ccccc3)nc3cc(OC)ccc23)CN1C(=O)[C@@H](NC(=O)OC(C)(C)C)C(C)(C)C)C(=O)O (some centres undefined) | 19 nM | 20 nM |
| C=CC1C[C@@]1(NC(=O)[C@@H]1C[C@@H](Oc2cc(-c3ccccc3)nc3ccccc23)CN1C(=O)[C@@H](NC(=O)OC(C)(C)C)C(C)C)C(=O)O (some centres undefined) | 250 nM | – |

More lines, now with the values ahead:

| Kd [1] | Ki [2] | SMILES |
| --- | --- | --- |
| 830 nM | – | C=CC1C[C@@]1(NC(=O)[C@@H]1C[C@@H](Oc2ccnc(-c3ccccc3)c2)CN1C(=O)[C@@H](NC(=O)OC(C)(C)C)C(C)(C)C)C(=O)O (some centres undefined) |
| 190 nM | 140 nM | C=CC1C[C@@]1(NC(=O)[C@@H]1C[C@@H](Oc2ccnc3ccccc23)CN1C(=O)[C@@H](NC(=O)OC(C)(C)C)C(C)(C)C)C(=O)O (some centres undefined) |
| 13500 nM | 29000 nM | C=CC1C[C@@]1(NC(=O)[C@@H]1C[C@@H](Oc2ccncc2)CN1C(=O)[C@@H](NC(=O)OC(C)(C)C)C(C)(C)C)C(=O)O (some centres undefined) |
| 180 nM | 50 nM | C=CC1C[C@@]1(NC(=O)[C@@H]1C[C@@H](Oc2ccnc3cc(OC)ccc23)CN1C(=O)[C@@H](NC(=O)OC(C)(C)C)C(C)(C)C)C(=O)O (some centres undefined) |

Reference: ChEMBL document CHEMBL4680219, “Structure-thermodynamics-relationships of hepatitis C viral NS3 protease inhibitors” (Eur J Med Chem, 2020)
